Patent US7947738B2, “Bicyclic γ-amino acid derivative” (Daiichi Sankyo Company, Ltd., priority 2007, dated 2011)
Where a name gives a salt, the structure may show the parent alone. Read-outs that look alike come from different tables or passages of the source.

Columns and labels:
[1] = target: T1, human Cacna2d1 (human calcium channel subunit α2δ1) (Homo sapiens, UniProt P54289); assay: Cacna2d1/GBP binding reaction inhibitory activity (3H-GBP binding to human Cacna2d1-expressing cell membrane fraction); settings: concentration inhibiting 50% of Cacna2d1/GBP binding, 3H-GBP 4.5 nM, 4° C.
T1 construct: 293 cells were transfected with the human Cacna2d1 expression plasmid pRK/hCacna2d1 constructed in paragraph a); expressed in transfected cells; membrane fraction
Description: 293 cells were transfected with the human Cacna2d1 expression plasmid pRK/hCacna2d1 constructed in paragraph a), and a cell line stably expressing human Cacna2d1 was obtained with human Cacna2d1 protein expression as an index. Specifically, 2×10^6 293 cells were inoculated onto a φ6 cm dish and cultured for 12 hours. Then, the cells were cotransfected with 5 μg of pRK/hCacna2d1 and 0.5 μg of a neomycin-resistant gene expression plasmid pSV2neo (Clontech) using a transfection reagent Lipofectamine Plus (Invitrogen Corp.) according to the protocol provided for the reagent.
The human Cacna2d1-expressing 293 cells obtained in paragraph b) were cultured in large scale in DMEM (Invitrogen Corp.) supplemented with 10% fetal bovine serum (Cansera International, Inc.) and 500 μg/ml G418 (Invitrogen Corp.), and the cells were collected. A protease inhibitor (Complete EDTA free (Roche Applied Science)) was added in an amount recommended for the reagent to a binding assay buffer (10 mM MOPS (pH 7.4), 10 mM HEPES (pH 7.4), 100 mM NaCl) to prepare a membrane fraction preparation buffer. The collected cells were washed with the membrane fraction preparation buffer and then homogenized using an ultrasonicator. Then, the homogenate was centrifuged at 12,000 rpm at 4° C. for 1 hour using a centrifuge. The supernatant was discarded, and the precipitate was suspended in the membrane fraction preparation buffer. The procedure from the ultrasonication using a ultrasonicator to the suspension of the precipitate after centrifugation was further repeated three times, and the obtained suspension was used as a human Cacna2d1-expressing cell membrane fraction. The total level of proteins contained in the membrane fraction was calculated from UV absorbance at a wavelength of 280 nm.
The human Cacna2d1-expressing cell membrane fraction and GBP labeled with a radioisotope ^3H (hereinafter, referred to as ^3H-GBP; Tocris Cookson Ltd.) were diluted with a binding assay buffer (10 mM MOPS (pH 7.4), 10 mM HEPES (pH 7.4), 100 mM NaCl) at a final concentration of 2.5 mg/ml in terms of the total protein level and a final ^3H-GBP concentration of 4.5 nM, respectively, to prepare 120 μl of a reaction solution, which was in turn left standing at 4° C. for 3 hours. This reaction product was added to wells of a filter plate (UniFilter 350 GF/B (Whatman)) and filtered through the filter. Then, a washing procedure involving the addition of 350 μl of a binding assay buffer (10 mM MOPS (pH 7.4), 10 mM HEPES (pH 7.4), 100 mM NaCl) and filtration through the filter was repeated three times. The filter plate was thoroughly dried, and the underside was sealed. After addition of 50 μl of Microscint 20 (PerkinElmer Inc.), the upper surface was also sealed, and radiation derived from the radioisotope ^3H remaining on the filter was counted using TopCount (PerkinElmer Inc.). From the obtained value, a value obtained by adding unlabeled GBP (SIGMA-ALDRICH INC.) at a final concentration of 20 μM to the present assay was subtracted as that derived from nonspecific adsorption, and the obtained value was used as the specific binding level of ^3H-GBP to Cacna2d1 (unit: “count”).
Each test compound was added at various concentrations to the Cacna2d1/GBP binding reaction detection assay constructed in paragraph a), and the binding level was measured by the method described in paragraph a). Then, with the Cacna2d1/GBP specific binding level obtained by the addition of the compound at a concentration of x nM defined as “binding level [x]” and the Cacna2d1/GBP binding inhibitory rate thereagainst defined as “inhibitory rate [x]”, the inhibitory rate (%) was determined based on the following equation: Inhibitory rate [x](%)=(1−(binding level [x]/binding level))×100, wherein the binding level refers to the binding level of ^3H-GBP obtained without the addition of the compound.
The inhibitory rate was plotted against the concentration.

[2] = test system: mice suffering from mechanical hyperalgesia; assay: Mechanical hyperalgesia assay (von Frey filament pain score); format: in vivo; settings: oral administration, dose that offers 50% improvement relative to the pain score of vehicle-administered group
Description: In the present invention, mice suffering from mechanical hyperalgesia were used in evaluation.
The mice were acclimatized for 30 minutes in a plastic cage for measurement. Then, the test compound was orally administered to the mice, which were in turn evaluated for mechanical hyperalgesia at a measurement time predetermined by a person in charge of the test. The evaluation of mechanical hyperalgesia was conducted by a partial modification of the method of Takasaki et al. (Pain 86 95-101, 2000) to confirm the effect of the test compound on mechanical hyperalgesia. Specifically, mechanical hyperalgesia was evaluated by assessing, based on scores according to the following criteria, behavior induced by pressing 1.4 g of von Frey filament onto the sole of the animal:
0: no response, 1: withdrawal from von Frey filament, and 2: shaking or licking of the hind paw immediately after the stimulation.
In one measurement, 6 stimulations were given to the mice, and the total score was used as a pain score.
The test compound was evaluated by calculating ID50, which is the dose of the compound that offers 50% improvement relative to the pain score of a vehicle-administered group.

[3] = test system: postherpetic neuralgia; settings: patients' own evaluations; Non-Patent Document 3; cited from earlier work
[4] = test system: painful diabetic neuropathy; settings: patients' own evaluations; Non-Patent Document 4; cited from earlier work

T1 sequence (P54289 25-1091 isoform P54289-2 limits assumed): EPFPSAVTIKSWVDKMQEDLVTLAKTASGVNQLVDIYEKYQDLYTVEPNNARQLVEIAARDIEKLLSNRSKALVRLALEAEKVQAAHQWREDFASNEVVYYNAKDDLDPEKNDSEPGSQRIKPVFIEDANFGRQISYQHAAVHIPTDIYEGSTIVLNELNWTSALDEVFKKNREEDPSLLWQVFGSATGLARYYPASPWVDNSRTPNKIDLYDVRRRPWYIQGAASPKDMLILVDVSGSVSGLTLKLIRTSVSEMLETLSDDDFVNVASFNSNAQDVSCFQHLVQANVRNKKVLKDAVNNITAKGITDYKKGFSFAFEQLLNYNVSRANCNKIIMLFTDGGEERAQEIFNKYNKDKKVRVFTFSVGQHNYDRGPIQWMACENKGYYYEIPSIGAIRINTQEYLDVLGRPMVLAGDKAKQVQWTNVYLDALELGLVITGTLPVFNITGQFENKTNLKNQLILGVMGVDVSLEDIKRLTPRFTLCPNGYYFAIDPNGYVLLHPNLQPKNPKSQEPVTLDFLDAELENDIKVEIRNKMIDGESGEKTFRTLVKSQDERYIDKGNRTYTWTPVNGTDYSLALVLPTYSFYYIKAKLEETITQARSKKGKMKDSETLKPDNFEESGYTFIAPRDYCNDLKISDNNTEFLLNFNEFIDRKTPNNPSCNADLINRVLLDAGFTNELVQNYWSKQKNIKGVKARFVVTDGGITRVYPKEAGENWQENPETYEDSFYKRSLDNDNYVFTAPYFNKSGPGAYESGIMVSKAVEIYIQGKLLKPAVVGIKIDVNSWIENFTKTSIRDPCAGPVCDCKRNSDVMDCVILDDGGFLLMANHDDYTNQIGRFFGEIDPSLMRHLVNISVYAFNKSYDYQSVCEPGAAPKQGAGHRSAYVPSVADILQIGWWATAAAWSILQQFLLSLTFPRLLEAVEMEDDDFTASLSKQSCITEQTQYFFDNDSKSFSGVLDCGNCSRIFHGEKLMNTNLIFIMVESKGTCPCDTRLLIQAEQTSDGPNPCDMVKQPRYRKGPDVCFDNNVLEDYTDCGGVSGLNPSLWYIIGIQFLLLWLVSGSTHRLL

| SMILES | IC50 ([1]; IC50 (nM)) [nM] | further results |
| --- | --- | --- |
| CCC(C)C1=CC2C(C1)CC2(CN)CC(=O)O (mixture of isomers) [Example 13, (±)-[(1S,5R,6R)-6-aminomethyl-3-sec-bicyclo[3.2.0]hept-3-en-6-yl]acetic acid] | 200 |  |
| CCC1=C[C@H]2[C@@H](C1)C[C@@]2(CNO)CC(=O)O.Cl (racemic) |  | melting point: 98 to 99 °C |
| NC[C@@]1(CC(=O)O)C[C@@H]2CC=C[C@@H]21 (racemic) [Example 1, (±)-[(1S,5R,6R)-6-(aminomethyl)bicyclo[3.2.0]hept-3-en-6-yl]acetic acid] | 51 |  |
| CC1=C[C@H]2[C@@H](C1)C[C@@]2(CN)CC(=O)O (racemic) [Example 7, (±)-[(1S,5R,6R)-6-aminomethyl-3-methylbicyclo[3.2.0]hept-3-en-6-yl]acetic acid] | 36 |  |
| CCC1=C[C@H]2[C@@H](C1)C[C@@]2(CN)CC(=O)O (racemic) [Example 8, (±)-[(1S,5R,6R)-6-aminomethyl-3-ethylbicyclo[3.2.0]hept-3-en-6-yl]acetic acid] | 28 |  |
| CCCC1=C[C@H]2[C@@H](C1)C[C@@]2(CN)CC(=O)O (racemic) [Example 9, (±)-[(1S,5R,6R)-6-aminomethyl-3-propylbicyclo[3.2.0]hept-3-en-6-yl]acetic acid] | 32 |  |
| CCCCC1=C[C@H]2[C@@H](C1)C[C@@]2(CN)CC(=O)O (racemic) [Example 10, (±)-[(1S,5R,6R)-6-aminomethyl-3-butylbicyclo[3.2.0]hept-3-en-6-yl]acetic acid] | 28 |  |
| CC(C)C1=C[C@H]2[C@@H](C1)C[C@@]2(CN)CC(=O)O (racemic) [Example 11, (±)-[(1S,5R,6R)-6-aminomethyl-3-isopropylbicyclo[3.2.0]hept-3-en-6-yl]acetic acid] | 89 |  |
| CC(C)CC1=C[C@H]2[C@@H](C1)C[C@@]2(CN)CC(=O)O (racemic) [Example 12, (±)-[(1S,5R,6R)-6-aminomethyl-3-isobutylbicyclo[3.2.0]hept-3-en-6-yl]acetic acid] | 32 |  |
| NC[C@@]1(CC(=O)O)C[C@@H]2CC(C3CCCC3)=C[C@@H]21 (racemic) [Example 14, (±)-[(1S,5R,6R)-6-aminomethyl-3-cyclopentylbicyclo[3.2.0]hept-3-en-6-yl]acetic acid] | 55 |  |
| C=CCC1=C[C@H]2[C@@H](C1)C[C@@]2(CN)CC(=O)O (racemic) [Example 15, (±)-[(1S,5R,6R)-6-aminomethyl-3-allylbicyclo[3.2.0]hept-3-en-6-yl]acetic acid] | 73 |  |
| C[C@]12C=CC[C@H]1C[C@]2(CN)CC(=O)O (racemic) [Example 16, (±)-[(1S,5R,6S)-6-aminomethyl-5-methylbicyclo[3.2.0]hept-3-en-6-yl]acetic acid] | 65 |  |
| CC1C=C[C@@H]2[C@H]1C[C@@]2(CN)CC(=O)O (mixture of isomers) [Example 17, (±)-[(1S,5R,6R)-6-aminomethyl-2-methylbicyclo[3.2.0]hept-3-en-6-yl]acetic acid] | 120 |  |
| CC(=O)OCC1=C[C@H]2[C@@H](C1)C[C@@]2(CN)CC(=O)O (racemic) [Example 18, (±)-[(1R,5R,6R)-3-(acetoxymethyl)-6-(aminomethyl)bicyclo[3.2.0]hept-3-en-6-yl]acetic acid] |  | IC50 ([1]; read-out: IC50): 670 nM |
| CC1=C(C)[C@H]2[C@@H](C1)C[C@@]2(CN)CC(=O)O (racemic) [Example 20, (±)-[(1S,5R,6R)-6-aminomethyl-3,4-dimethylbicyclo[3.2.0]hept-3-en-6-yl]acetic acid p-toluenesulfonate] | 100 |  |
| CSCC1=C[C@H]2[C@@H](C1)C[C@@]2(CN)CC(=O)O (racemic) [Example 24, (±)-{(1R,5R,6R)-6-aminomethyl-3-[(methylthio)methyl]bicyclo[3.2.0]hept-3-en-6-yl}acetic acid] | 85 |  |
| CCC1=C[C@@H]2[C@H](C1)C[C@]2(CN)CC(=O)O (single isomer, unassigned) [Example 21] | 14 |  |
| CCC1=C[C@H]2[C@@H](C1)C[C@@]2(CN)CC(=O)O (single isomer, unassigned) [Example 23] | 41 |  |
| NC[C@]1(CC(=O)O)C[C@H]2CC=C[C@H]21 [Example 2, [(1R,5S,6S)-6-(aminomethyl)bicyclo[3.2.0]hept-3-en-6-yl]acetic acid] | 27 | ID50 [2]: 10.4 mg/kg |
| NC[C@]1(CC(=O)O)C[C@H]2CC=C[C@H]21 [Example 5, [(1R,5S,6S)-6-(aminomethyl)bicyclo[3.2.0]hept-3-en-6-yl]acetic acid hydrochloride] | 24 |  |
| Cl.NC[C@]1(CC(=O)O)C[C@H]2CC=C[C@H]21 [Example 6, [(1R,5S,6S)-6-(aminomethyl)bicyclo[3.2.0]hept-3-en-6-yl]acetic acid benzenesulfonate] | 26 | melting point: 161 to 162 °C |
| CCC1=C[C@@H]2[C@H](C1)C[C@]2(CN)CC(=O)O [Example 22, [(1R,5S,6S)-6-aminomethyl-3-ethylbicyclo[3.2.0]hept-3-en-6-yl]acetic acid p-toluenesulfonate] | 10 |  |
| CCC1=C[C@@H]2[C@H](C1)C[C@]2(CN)CC(=O)O [Example 31, [(1R,5S,6S)-6-(aminomethyl)-3-ethylbicyclo[3.2.0]hept-3-en-6-yl]acetic acid benzenesulfonate] | 14 |  |
| NCC1(CC(=O)O)CCCCC1 [gabapentine] |  | efficacy in the treatment of postherpetic neuralgia [3]: approximately 60% |
| CC(C)C[C@H](CN)CC(=O)O [pregabalin] |  | efficacy in the treatment of painful diabetic neuropathy [4]: approximately 50% |
